Measured values taken from patent publication US4175125A, “Method for treating methicillin resistant staphylococcus aureus” (Eli Lilly and Company, priority 1978, dated 1979).
In brackets after ≈: the same amount, converted by molar mass.

Tests used:
[1] = system: Staphylococcus aureus cultures; experiment: Agar dilution susceptibility test, phenylthioacetyl cephalosporins vs methicillin resistant S. aureus (Example 9); format: cell-based; conditions: for MIC: Staphylococcus aureus, read-out: MIC
From the text: This example compares the antibiotic activities of three known compounds, methicillin, cephalothin, and cephaloridine, with three compounds from the above examples, in terms of minimum inhibitory concentration (MIC) values in microgram/milliliter units against various isolates of Staphylococcus aureus cultures. The culture numbers and the procedures used to obtain the reported data are disclosed by W. E. Wick and D. A. Preston in their article "Heterogeneous Methicillin-Resistant Staphylococcus Aureus" which appeared in Progress in Antimicrobial And Anticancer Chemotherapy, Proceedings of the 6th International Congress of Chemotherapy, Volume, 1, U. of Tokyo Press, Tokyo, (1970). In these agardilution susceptibility tests, the inocula were diluted to 10^3 bacteria per spot. Cultures 3055 (benzylpenicillin sensitive) and H232 (benzylpenicillin-resistant) are controls. The remaining cultures are methicillin-resistant, and, except for 3136, are clinical isolates. Culture 3136 is a 4th transfer laboratory selected mutant.

[2] = system: Staphylococcus aureus cultures; experiment: Broth dilution MIC in trypticase soy broth, low and high NaCl (Example 10); format: cell-based; conditions: Staphylococcus aureus, TSB, read-out: MIC
Method: This example compares the antibiotic activities of methicillin, cephalothin and cephaloridine with the compounds of Examples 1, 2 and 3, in broth dilution tests. The MIC values, in μg/ml., are against the same Staphylococcus aureus cultures described in Example 9, except that in this example the cultures were grown in trypticase soy broth (TSB). Growing the cultures in two broth cultures, one having a low (0.5 percent) sodium chloride content and one having a high (5.0 percent) sodium chloride content is said to assist in identifying the methicillin-resistant cultures from those which are not methicillin-resistant. […] See Chabbert, Y. A., 1967 Postgrad. Med. J., 43 (suppl); 40-46. One expects that similar changes in MIC values for this type of culture to other β-lactam antibiotics, e.g., various penicillins and cephalosporins, to have similar implications. […] That is, methicillin-resistant S.aureus cultures are susceptible to the cephalosporin antibiotics used in this invention.

[3] = culture 3130, table part marked b
[4] = culture 3130, table part marked c
[5] = culture 3131, table part marked b
[6] = culture 3131, table part marked c
[7] = culture 3134, table part marked b
[8] = culture 3134, table part marked c
[9] = culture 3135, table part marked b
[10] = culture 3135, table part marked c
[11] = culture 3136, table part marked b
[12] = culture 3136, table part marked c
[13] = culture 3137, table part marked b
[14] = culture 3137, table part marked c
[15] = culture 3138, table part marked b
[16] = culture 3138, table part marked c
[17] = culture 3139, table part marked b
[18] = culture 3139, table part marked c
[19] = culture (Seattle) 966, table part marked b
[20] = culture (Seattle) 966, table part marked c
[21] = culture S61, table part marked b
[22] = culture S61, table part marked c

MIC ([1]; culture 3055 (control, benzylpenicillin sensitive), table part marked b): < 0.06 mg/L | MIC ([1]; culture 3055 (control, benzylpenicillin sensitive), table part marked c): < 0.06 mg/L | MIC [1, 3]: 0.5 mg/L (≈ 1.02 µM) | MIC [1, 4]: 1 mg/L (≈ 2.04 µM) | MIC [1, 5]: 1 mg/L (≈ 2.04 µM) | MIC [1, 6]: 1 mg/L (≈ 2.04 µM) | MIC ([1]; culture 3132, table part marked b): 0.5 mg/L (≈ 1.02 µM) | MIC ([1]; culture 3132, table part marked c): 0.25 mg/L (≈ 0.509 µM) | MIC ([1]; culture 3133, table part marked b): 0.5 mg/L (≈ 1.02 µM) | MIC ([1]; culture 3133, table part marked c): 1 mg/L (≈ 2.04 µM) | MIC [1, 7]: 1 mg/L (≈ 2.04 µM) | MIC [1, 8]: 0.5 mg/L (≈ 1.02 µM) | MIC [1, 9]: 0.5 mg/L (≈ 1.02 µM) | MIC [1, 10]: 0.25 mg/L (≈ 0.509 µM) | MIC [1, 11]: 0.5 mg/L (≈ 1.02 µM) | MIC [1, 12]: 0.5 mg/L (≈ 1.02 µM) | MIC [1, 13]: 2 mg/L (≈ 4.07 µM) | MIC [1, 14]: 2 mg/L (≈ 4.07 µM) | MIC [1, 15]: 1 mg/L (≈ 2.04 µM) | MIC [1, 16]: 0.5 mg/L (≈ 1.02 µM) | MIC [1, 17]: 1 mg/L (≈ 2.04 µM) | MIC [1, 18]: 0.25 mg/L (≈ 0.509 µM) | MIC [1, 19]: 0.5 mg/L (≈ 1.02 µM) | MIC [1, 20]: 0.25 mg/L (≈ 0.509 µM) | MIC ([1]; culture H232 (control, benzylpenicillin-resistant), table part marked b): < 0.06 mg/L | MIC ([1]; culture H232 (control, benzylpenicillin-resistant), table part marked c): < 0.06 mg/L | MIC ([1]; culture Kavarmark 1138501, table part marked b): 0.5 mg/L (≈ 1.02 µM) | MIC ([1]; culture Kavarmark 1138501, table part marked c): 0.5 mg/L (≈ 1.02 µM) | MIC [1, 21]: 0.5 mg/L (≈ 1.02 µM) | MIC [1, 22]: 1 mg/L (≈ 2.04 µM) | MIC ([2]; culture 3055 (control), table part marked b): 0.06 mg/L (≈ 0.122 µM) | MIC ([2]; culture 3055 (control), table part marked c): 0.06 mg/L (≈ 0.122 µM) | MIC [2, 3]: 0.5 mg/L (≈ 1.02 µM) | MIC [2, 4]: 4 mg/L (≈ 8.14 µM) | MIC [2, 5]: 1 mg/L (≈ 2.04 µM) | MIC [2, 6]: 2 mg/L (≈ 4.07 µM) | MIC ([2]; culture 3132 (first column so headed), table part marked b): < 0.5 mg/L | MIC ([2]; culture 3132 (first column so headed), table part marked c): 2 mg/L (≈ 4.07 µM) | MIC ([2]; culture 3132 (second column so headed), table part marked b): < 0.5 mg/L | MIC ([2]; culture 3132 (second column so headed), table part marked c): 2 mg/L (≈ 4.07 µM) | MIC [2, 7]: 1 mg/L (≈ 2.04 µM) | MIC [2, 8]: 4 mg/L (≈ 8.14 µM) | MIC [2, 9]: < 0.5 mg/L | MIC [2, 10]: 2 mg/L (≈ 4.07 µM) | MIC [2, 11]: 0.5 mg/L (≈ 1.02 µM) | MIC [2, 12]: 2 mg/L (≈ 4.07 µM) | MIC [2, 13]: 2 mg/L (≈ 4.07 µM) | MIC [2, 14]: 4 mg/L (≈ 8.14 µM) | MIC [2, 15]: 1 mg/L (≈ 2.04 µM) | MIC [2, 16]: 1 mg/L (≈ 2.04 µM) | MIC [2, 17]: 1 mg/L (≈ 2.04 µM) | MIC [2, 18]: 1 mg/L (≈ 2.04 µM) | MIC [2, 19]: 0.5 mg/L (≈ 1.02 µM) | MIC [2, 20]: 2 mg/L (≈ 4.07 µM) | MIC ([2]; culture H232 (control), table part marked b): 0.12 mg/L (≈ 0.244 µM) | MIC ([2]; culture H232 (control), table part marked c): 0.25 mg/L (≈ 0.509 µM) | MIC ([2]; culture Kavarnick 1138501, table part marked b): 0.5 mg/L (≈ 1.02 µM) | MIC ([2]; culture Kavarnick 1138501, table part marked c): 2 mg/L (≈ 4.07 µM) | MIC [2, 21]: 2 mg/L (≈ 4.07 µM) | MIC [2, 22]: 2 mg/L (≈ 4.07 µM) | MIC ([2]; culture S, table part marked b): 2 mg/L (≈ 4.07 µM) | MIC ([2]; culture S, table part marked c): 2 mg/L (≈ 4.07 µM)
Structure (SMILES): CC(=O)OCC1=C(C(=O)O)N2C(=O)C(NC(=O)CSc3ccc(Cl)c(Cl)c3)C2SC1 (stereo not drawn) [Example 1, 7-(3,4-dichlorophenylthioacetamido)cephalosporanic acid]
effectiveness in in vitro tests vs methicillin, cephalothin and cephaloridine ([1]; various cultures of methicillin-resistant Staphylococcus aureus): substantially more effective than methicillin, cephalothin, and cephaloridine
